Reference: the OPERA property sets (Mansouri et al. 2018)

Row | SMILES | logP
1 | Cc1cc(N(CCO)CCO)ccc1N=Nc1ccc([N+](=O)[O-])cc1Cl | 4.3
2 | CCN(CCO)c1ccc(N=Nc2ccc([N+](=O)[O-])cc2)cc1 | 4.3
3 | COc1cc(N=Nc2c(Br)cc([N+](=O)[O-])cc2[N+](=O)[O-])c(NC(C)=O)cc1N(CCOC(C)=O)CCOC(C)=O | 4.8
4 | O=C1c2ccccc2C(=O)C1c1ccc2ccccc2n1 | 4.1
5 | O=[N+]([O-])c1cc(S(=O)(=O)Nc2ccccc2)ccc1Nc1ccccc1 | 4.6
6 | N#CCCN(CCO)c1ccc(N=Nc2ccc([N+](=O)[O-])cc2Cl)cc1 | 4
7 | C=CCN(CCC#N)c1cc(NC(C)=O)c(N=Nc2c(Br)cc([N+](=O)[O-])cc2[N+](=O)[O-])cc1OC | 5.4
8 | CCn1c(O)c(N=Nc2ccc(Cl)cc2[N+](=O)[O-])c(C)c(C#N)c1=O | 3.4
9 | Nc1ccc(N)c2c1C(=O)c1ccccc1C2=O | 3
10 | O=C1c2ccccc2C(=O)C1c1nc2ccccc2cc1O | 5
11 | CNc1cccc2c1C(=O)c1ccccc1C2=O | 4.1
12 | COc1cc(N)c2c(c1N)C(=O)c1ccccc1C2=O | 3.5
